This is an account of results in PubChem BioAssay (NCI).

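Following 48 hours of exposure in 96-well plates, responses at five concentrations were used to interpolate endpoints linearly. GI50 marks 50% less growth. At the TGI there is no net growth.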

For this experiment, the system named is MDA-MB-468 breast. The experiment is described as follows: DTP human tumour cell line panel, 48 h.
The GI50 is the concentration that inhibits growth by half. A word on the TGI: it is the concentration giving total growth inhibition. Read a low TGI as more potent growth arrest. For `COc1cc(-c2cc(/C=C3\C(=O)Nc4ccc(Cl)cc43)[nH]n2)cc(OC)c1OC`, the GI50 is 5230 nM and the total growth inhibition concentration (TGI) was determined as 88.8 µM.
`Cc1nnc([S-])o1.[Au+].c1ccc([PH+](c2ccccc2)c2ccccc2)cc1`: the GI50 was 1380 nM and the TGI was 2.8 µM.
The like results for `CCC(/C=C(C)/C=C/C(=O)c1c(O)c(-c2ccc(O)cc2)c[nH]c1=O)CO` (configuration not stated) were, in that order, 5240 nM and 24.4 µM.
As to `Nc1nc2cc(-c3ccc4ncc(C(=O)N5CCOCC5)n4c3)ccc2o1`, the GI50 is 3820 nM and the TGI turned out to be 45.5 µM.
As to `Cc1nn(-c2ccccc2)c(-n2ccnc2)c1/C=N/Nc1nc(-c2ccc(Cl)c(Cl)c2)cs1`, the GI50 is 1470 nM and the TGI came out at 7.92 µM.
In the case of `CCCCN(CCCC)CC(O)c1ccc(OCc2ccccc2)c2ccccc12` (configuration not stated), the GI50 is 2170 nM and the concentration for total growth inhibition (TGI) stood at 6 µM.
Taken in the same sequence, the figures for `Cc1ccc2c(NCCCN(C)C)c3c(C)nn(C)c3nc2c1` were 2710 nM and 10.2 µM.
Taken in the same sequence, the figures for `O=C(C(Br)C(Br)c1ccccc1)C(Br)C(Br)c1ccccc1` (configuration not stated) were 1040 nM and 3.09 µM.
With `CN1CCN(Cc2ccc(NC(=O)c3cncc(C#Cc4cnc5ccc(OCC6(C)COC6)nn45)c3)cc2C(F)(F)F)CC1`, the GI50 is 120 nM and the TGI came out at 0.36 µM.
Taken in the same sequence, the figures for `CNC1CCc2c(sc(NC(=O)c3ccc(C(C)(C)C)cc3)c2C(N)=O)C1` (configuration not stated) were 1840 nM and 3.58 µM.
Taken in the same sequence, the figures for `CCOC(=O)c1ccc(NC(=O)Nc2nccs2)cc1` were 46.7 nM and above 100 µM.
The like results for `NS(=O)(=O)c1ccc(Nc2ncc(-c3ccccc3)o2)cc1` were, in that order, above 25000 nM and above 25 µM.
With `COc1ccc(/C=C2\CS(=O)(=O)C/C(=C\c3ccc(OC)cc3)C2=O)cc1`, the GI50 was 1590 nM and the concentration for total growth inhibition (TGI) came to 5.18 µM.
The like results for `Cn1cc(C2=C(c3cn(C)c4cc(C(=O)O)ccc34)C(=O)NC2=O)c2ccccc21` were, in that order, above 25000 nM and above 25 µM.
Regarding `COc1cc(-c2cncn2-c2ccc(-c3nc4ccc(F)cc4s3)cc2)ccc1F`, the GI50 is 11100 nM and the total growth inhibition concentration (TGI) is above 100 µM.
Taken in the same sequence, the figures for `COC(=O)c1c2c(c(C)[n+]([O-])c1C)C(=O)C(NCc1cccc(Cl)c1)=CC2=O` were 896 nM and 2.5 µM.
The like results for `CC(C)(C)CC(C)(C)c1ccc(OCCSC(=N)N)cc1` were, in that order, 358 nM and 1.9 µM.
Taken in the same sequence, the figures for `O=C(Nc1cccc(-n2cc(-c3ccncc3)c(-c3ccc(Cl)c(O)c3)n2)c1)Nc1cccc(C(F)(F)F)c1` were 980 nM and 7.83 µM.
Consider `CCCCCCCCCCCCCCCCNC(=O)OC(C)C`, for which the GI50 is 4010 nM and the TGI worked out at 10.1 µM.
The like results for `CN(CCO)C1CCN(c2ccc(Nc3ncc4c5ccnc(F)c5n(C5CCCC5)c4n3)nc2)CC1` were, in that order, 15400 nM and 33.2 µM.
As for `O=C1c2ccc3c4c(ccc(c24)C(=O)N1CCCNCc1ccccc1F)C(=O)N(CCCNCc1ccccc1F)C3=O`, the GI50 is 143 nM and the TGI came to 0.29 µM.
The like results for `CCN(CC)CCCN1C(=O)c2c(c(C)c3c(oc4ccc(O)cc43)c2C)C1=O` were, in that order, 1650 nM and 3.72 µM.
As for `CC(C)(Oc1ccc(Cl)cc1)C(=O)NC1C2CC3CC1CC(NS(C)(=O)=O)(C3)C2` (configuration not stated), the GI50 was above 100000 nM and the TGI was above 100 µM.
With `C=C(C)[C@@H]1CC[C@]2(COC(C)=O)CC[C@]3(C)[C@H](CC[C@@H]4[C@@]5(C)CCCN(C(C)=O)C(C)(C)[C@@H]5CC[C@]43C)[C@@H]12`, the GI50 was 1530 nM and the concentration for total growth inhibition (TGI) was determined as 3 µM.
In the case of `Nc1[nH]c(=O)nc2c1cnn2Cc1ccccc1`, the GI50 is above 100000 nM and the TGI is above 100 µM.
Taken in the same sequence, the figures for `O=[N+]([O-])c1cc([N+](=O)[O-])c(N2CCCC2)cc1NN=C(c1ccc(O)cc1)c1ccc(O)cc1` were 2180 nM and 10.1 µM.
